According to patent publication US11028052B2, “Compounds useful as modulators of TRPM8” (Firmenich Incorporated, priority 2013, dated 2021):

Legend:
hTRPM8 [1] = biological target: T1, hTRPM8 (Homo sapiens, UniProt Q7Z2W7); assay: hTRPM8 cell line agonist assay (section 2.1); type: cell-based; settings: for EC50: cell line stably expressing hTRPM8; for EC50 Ratio (WS3): relative to WS3 screened on the same day, greater than one = more potent than WS3
T1 construct: expressed in transfected cells
Protocol: A cell line which stably expresses hTRPM8 was used in biological assays in association with testing the present compounds with cool-tasting or -feeling properties. Typical compound concentrations tested were 100 μM, 50 μM, 10 μM, 1 μM, and 0.5 μM. The present compounds have shown activity as agonists of hTRPM8. Assay results for compounds are illustrated in the table below. EC50 in micromoles (μM) is presented as well as the activity relative to WS3 (an established, commercially available cooling agent). […] A value of 1 indicates the compound is equipotent to WS3 in the assay. […] It is noted that Compounds 2.A1 to 2.S6 in the table below are the Examples described in this application. For example, Compound 2.B 1 is Example 2.2.

panelists [2] = assay: Sensory studies, cool line scale vs WS-3 (section 2.2); type: in vivo, human; settings: compound concentration compared in cooling with a known concentration of WS-3
Text: The results are presented relative to a known concentration of WS-3. A more specific detailed example of the sensory evaluation of selected examples are also presented below. […]

panelists [3] = assay: Sensory study, cool line scale test vs WS-3 (section 3.2); type: in vivo, human; settings: 5 μM
Protocol: Two typical sensory studies are described below each followed by a table summarizing sensory results of selected compounds of the invention (Tables 3.2 and 3.3).
(§1) All samples made with Low Sodium Buffer (LSB) pH ˜7.1 and contain 0.1% ethanol.
(§2) The test is a cool line scale test with timed 30 seconds interval. Compounds are rated on a 15 point line scale where 45 μM WS-3 (N-Ethyl-p-menthane-3-carboxamide) is ranked as a 5 in cool intensity. The present compound was tested to determine at what concentration the cooling intensity is equivalent to 45 μM WS-3. In each test, the panelist was presented with a 0 μM control sample, a 45 μM WS-3 control sample and the experimental compound sample and asked to rate the cooling intensity of each sample. Panelists were also asked to rate bitterness. In the table below there was no significant bitterness detected unless otherwise noted. Also, in the table below, n represents the number of tests completed for a given experiment (#panelists×#repetitions).

hTRPM8 [4] = biological target: T1, hTRPM8; assay: hTRPM8 cell based agonist assay (section 3.1); settings: for EC50: mammalian cell line stably expressing TRPM8; for EC50 Ratio (WS3): relative to WS3
Text: The present compounds are useful as modulators of TRPM8. The activity of TRPM8 can be readily monitored in cell based assays using fluorescent calcium-sensitive dyes, membrane potential dyes, or sodium-sensitive dyes. The activity of TRPM8 can also be monitored with electrophysiological set-ups, such as patch-clamping and two-electrode voltage clamping. A mammalian cell line derivative which stably expresses TRPM8 was used in biological assays in association with testing the present compounds with cool-tasting or -feeling properties (Servant et al. US 2007/0259354 A1 and references cited therein). Typical compound concentrations tested were 50 μM, 20 μM, 10 μM, 5 μM, 2 μM, 1 μM, 0.5 μM, 0.1 μM, 0.05 μM, 0.01 μM, and other concentration points in between. The present compounds have shown strong activity as agonists of hTRPM8. Assay results for compounds are illustrated in Table 1 below. Specifically, the Compounds listed in Table 3.1, i.e., Compounds 3.A1 to Compounds 3.D1 are the specific compounds as described above.

panelists [5] = assay: Sensory study, cooling line scale vs WS-3 (section 1.2); type: in vivo, human; settings: 5 μM
Protocol: Three typical sensory studies are described below each followed by a table summarizing sensory results of selected compounds of the invention (Tables 1.2 to 1.4).
as §1
as §2, with “Compounds” for “The test is a cool line scale test with timed 30 seconds interval. Compounds”, “intensity. In most cases our compounds are” for “intensity. The present compound was”, “panelist is” for “panelist was”, “Panelists are” for “Panelists were”

T1 sequence (Q7Z2W7 whole entry): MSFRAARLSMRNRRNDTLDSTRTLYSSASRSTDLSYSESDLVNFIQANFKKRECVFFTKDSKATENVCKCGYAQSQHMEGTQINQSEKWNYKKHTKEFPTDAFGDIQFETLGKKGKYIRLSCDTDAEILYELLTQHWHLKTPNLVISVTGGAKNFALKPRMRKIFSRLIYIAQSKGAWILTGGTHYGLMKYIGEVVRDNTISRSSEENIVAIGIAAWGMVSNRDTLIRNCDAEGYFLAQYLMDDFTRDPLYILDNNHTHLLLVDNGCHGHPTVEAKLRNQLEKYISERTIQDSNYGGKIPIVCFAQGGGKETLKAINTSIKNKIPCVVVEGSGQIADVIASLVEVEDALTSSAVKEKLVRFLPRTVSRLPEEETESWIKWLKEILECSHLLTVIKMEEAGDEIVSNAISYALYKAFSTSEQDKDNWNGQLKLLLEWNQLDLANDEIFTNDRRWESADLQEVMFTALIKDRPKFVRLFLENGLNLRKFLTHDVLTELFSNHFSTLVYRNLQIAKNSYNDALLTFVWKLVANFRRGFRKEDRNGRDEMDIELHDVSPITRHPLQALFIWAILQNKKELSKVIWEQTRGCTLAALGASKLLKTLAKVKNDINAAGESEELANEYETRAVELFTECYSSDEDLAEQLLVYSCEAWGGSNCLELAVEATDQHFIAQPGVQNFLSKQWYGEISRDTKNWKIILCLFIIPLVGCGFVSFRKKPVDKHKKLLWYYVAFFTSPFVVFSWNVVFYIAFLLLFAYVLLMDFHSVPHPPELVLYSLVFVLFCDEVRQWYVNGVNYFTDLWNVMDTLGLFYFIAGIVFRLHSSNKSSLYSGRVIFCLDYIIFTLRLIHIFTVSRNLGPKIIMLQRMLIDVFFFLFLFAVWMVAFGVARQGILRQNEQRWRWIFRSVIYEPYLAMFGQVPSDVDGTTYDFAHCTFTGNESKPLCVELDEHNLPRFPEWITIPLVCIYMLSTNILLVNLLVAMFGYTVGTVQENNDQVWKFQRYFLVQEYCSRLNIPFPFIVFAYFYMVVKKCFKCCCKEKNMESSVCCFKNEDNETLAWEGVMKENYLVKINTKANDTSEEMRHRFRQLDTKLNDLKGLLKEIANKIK

Row | SMILES | EC50 (hTRPM8 [1]) | EC50 Ratio (WS3) (hTRPM8 [1]) | EC50 (hTRPM8 [4]) | EC50 Ratio (WS3) (hTRPM8 [4]) | further results
1 | CC1CCCC1C1(C)C(=O)N(CC(=O)c2cccc(O)c2)C(=O)N1C (mixture of isomers) [Compound 2.G3] | 0.146 µM | 32.6 |  |  | Sensory Results (panelists [2]): 15 uM < 45 uM WS-3
2 | CC1CCCC1C1(C)C(=O)N(CC(=O)c2ccccc2)C(=O)N1C (mixture of isomers) [Compound 2.L3] | 0.182 µM | 25.9 |  |  | 
3 | CN1C(=O)N(CC(=O)c2ccccc2)C(=O)C1(C)C1CC2CCC1CC2 (single isomer, unassigned) [Compound 2.A3] | 0.1 µM | 73.1 |  |  | 
4 | CN1C(=O)N(CC(=O)c2cccc(O)c2)C(=O)C1(C)C1CC2CCC1C2 (single isomer, unassigned) [Compound 2.B3] |  | 2810.1 |  |  | 
5 | CN1C(=O)N(CC(=O)c2ccc[nH]2)C(=O)C1(C)C1CC2CCC1C2 (single isomer, unassigned) [Compound 2.O3] | 0.223 µM | 21.6 |  |  | 
6 | CN1CC(C)(C2=CCCCC2)C(=O)N(CC(=O)c2ccccc2)C1=O (stereo not shown) [Compound 2.A1] | 0.135 µM | 54.6 |  |  | Sensory Results (panelists [2]): 10 uM < 45 uM WS-3
7 | CN1C(=O)N(CC(=O)c2cccc(O)c2)C(=O)C1(C)C1CC2CCC1C2 (stereo not shown) [Compound 2.C3] | 0.1 µM | 49.1 |  |  | 
8 | CN1C(=O)N(CC(=O)c2ccc(O)cc2)C(=O)C1(C)C1CCCCC1 (stereo not shown) [Compound 2.D3] | 0.124 µM | 33.4 |  |  | 
9 | CN1C(=O)N(CC(=O)c2ccccc2)C(=O)C1(C)C1CC2C=CC1CC2 (stereo not shown) [Compound 2.E3] | 0.127 µM | 53.5 |  |  | 
10 | CN1CC(C)(C2=CCCCC2)CN(CC(=O)c2ccccc2)C1=O (stereo not shown) [Compound 2.F1] | 2.88 µM | 1.6 |  |  | 
11 | CN1C(=O)N(CC(=O)c2ccccc2)C(=O)C1(C)C1=CCCCC1 (stereo not shown) [Compound 2.F3] | 0.138 µM | 44.0 |  |  | 
12 | CN1C(=O)N(CC(=O)c2ccccc2)C(=O)C1(C)C1CC2CCC1CC2 (stereo not shown) [Compound 2.I3] | 0.163 µM | 33.8 |  |  | 
13 | CN1C(=O)N(CC(=O)c2ccc[nH]2)C(=O)C1(C)C1CCCCC1 (stereo not shown) [Compound 2.J3] | 0.166 µM | 32.1 |  |  | Sensory Results (panelists [2]): 15 uM~45 uM WS-3
14 | CN1C(=O)N(CC(=O)c2cccnc2)C(=O)C1(C)C1CCCCC1 (stereo not shown) [Compound 2.K3] | 0.172 µM | 30.1 |  |  | Sensory Results (panelists [2]): 30 uM~45 uM WS-3
15 | CN1C(=O)N(CC(=O)c2ccccc2)C(=O)C(C)(C2=CCCCC2)C1=O (stereo not shown) [Compound 2.M3] | 0.192 µM | 240.6 |  |  | 
16 | CC1CCCC1C1(C)C(=O)N(CC(=O)c2ccc[nH]2)C(=O)N1C (stereo not shown) [Compound 2.N3] | 0.205 µM | 24.1 |  |  | Sensory Results (panelists [2]): 15 uM < 45 uM WS-3
17 | CCN1C(=O)N(CC(=O)c2ccccc2)C(=O)C1(C)C1CCCCC1 (stereo not shown) [Compound 2.P3] | 0.23 µM | 38.1 |  |  | Sensory Results (panelists [2]): 15 uM < 45 uM WS-3
18 | CN1C(=O)N(CC(=O)c2cccnc2)C(=O)C1(C)CCc1ccccc1 (stereo not shown) [Compound 2.U5] | 3.72 µM | 0.9 |  |  | 

Row | SMILES | EC50 (hTRPM8 [1]) | EC50 Ratio (WS3) (hTRPM8 [1]) | EC50 (hTRPM8 [4]) | EC50 Ratio (WS3) (hTRPM8 [4]) | further results
19 | CN1CC(C)(C2CCCCC2)C(=O)N(CC(=O)c2cccnc2)C1=O (stereo not shown) [Example 2.2, 5-cyclohexyl-1,5-dimethyl-3-(2-oxo-2-(pyridin-3-yl)ethyl)dihydropyrimidine-2,4(1H,3H)-dione] | 0.374 µM | 13.5 |  |  | 
20 | C[C@H](C(=O)N(C)CC(=O)c1ccccc1)C1CCCCC1 [Example 3.2, (S)-2-Cyclohexyl-N-methyl-N-(2-oxo-2-phenylethyl)propanamide] |  |  |  |  | Cooling compared with 0 μM and 45 μM WS-3 (panel conclusion) (panelists [3]): significantly more cooling than 0 μM WS-3 (p<0.05) and not significantly different in cooling than 45 μM WS-3; Average Cooling (panelists [3]; Table 3.2, 15 point line scale, n = 30): 4.0
21 | CC(C(=O)N(C)CC(=O)c1cccc(O)c1)C1CCCCC1 (stereo not shown) [Example 3.A1] |  |  | 0.013 µM | 581.6 | 
22 | CC(C(=O)N(C)CC(=O)c1ccccc1)C1CCCCC1 (stereo not shown) [Example 3.A2] |  |  | 0.01 µM | 577.8 | 
23 | CC(C(=O)N(C)CC(=O)c1cc(O)cc(O)c1)C1CCCCC1 (stereo not shown) [Example 3.A3] |  |  | 0.028 µM | 221.2 | 
24 | C[C@H](C(=O)N(C)CC(=O)c1ccsc1)C1CCCCC1 [Example 3.A4] |  |  | 0.041 µM | 132.4 | 
25 | CC(C)(C(=O)NCC(=O)c1cc(O)cc(O)c1)C1CCCCC1 [Example 3.A9] |  |  | 0.087 µM | 66.5 | 
26 | CC(C(=O)N(C)CC(=O)c1cccs1)C1CCCCC1 (stereo not shown) [Example 3.A10] |  |  | 0.059 µM | 62.5 | 
27 | CC(C)(C(=O)NCC(=O)c1cccnc1)C1CCCCC1 [Example 3.B4] |  |  | 0.23 µM | 26.5 | 
28 | CC(C)(C(=O)NCC(=O)c1cccc(F)c1)C1CCCCC1 [Example 3.B7] |  |  | 0.257 µM | 18.6 | 
29 | CC(C)(C(=O)NCC(=O)c1ccc(O)cc1)C1CCCCC1 [Example 3.C5] |  |  | 0.504 µM | 9.4 | 
30 | CC(C(=O)N(C)CC(=O)c1ccccc1)c1ccccc1 (stereo not shown) [Example 3.D6] |  |  | 2.35 µM | 3.9 | 
31 | Cc1cccc(C(C)C(=O)N(C)CC(=O)c2ccccc2)c1 (stereo not shown) [Example 3.E6] |  |  | 4.47 µM | 2.5 | 
32 | CN(CC(=O)c1ccc(F)cc1)C(=O)C(C)(C)C1CCCCC1 [Example 3.E7] |  |  | 2.16 µM | 1.9 | 
33 | CC(C)(C(=O)NCC(O)c1ccccc1)C1CCCCC1 (stereo not shown) [Example 3.F8] |  |  | 4.17 µM | 1.1 | 
34 | CC(C(=O)NCC(=O)c1ccccc1)C1CC2CCC1C2 (stereo not shown) [Example 3.F9] |  |  | 3.39 µM | 1.0 | 
35 | C[C@H](C(=O)NNC(=O)c1ccccc1)C1CCCCC1 [Example 3.G1] |  |  | 6.24 µM | 1.0 | 
36 | CC1=NN(CC(=O)c2ccccc2)C(=O)C1(C)C1CCCCC1 (stereo not shown) [Example A1] |  |  |  |  | Cooling compared with 0 μM and 45 μM WS-3 (panel conclusion) (panelists [5]): significantly more cooling than 0 μM WS-3 (p<0.05) and not significantly different in cooling than 45 μM WS-3
